From PMC3454511 (The Journal of organic chemistry, 2012)
In brackets after ≈: the same amount, converted by molar mass.

How the values were obtained:
[1] = Plasma protein binding by rapid-equilibrium dialysis, mouse; settings: 37 °C for 5 h
Plasma stability, mouse = settings: % parent remaining at 5 h
[2] = Microsomal stability, human; settings: % parent remaining at 1 hour
[3] = BBB parallel artificial membrane permeability assay; assay type: in vitro ADME; settings: for Papp: PAMPA; for BBB PAMPA: Pe
Plasma stability, human = settings: % parent remaining at 5 h
[4] = Plasma protein binding by rapid-equilibrium dialysis, human; settings: 37 °C for 5 h
[5] = Bidirectional Caco-2 permeability; assay type: in vitro ADME; settings: human, Caco-2
[6] = Microsomal stability, mouse; settings: % parent remaining at 1 hour
physchem = settings: thermodynamic from solid
[7] = Hepatocyte stability, mouse; settings: % parent remaining at 2 hour
[8] = Hepatocyte stability, human; settings: % parent remaining at 2 hour
Caco-2 monolayer = test: Bidirectional Caco-2 permeability; assay type: in vitro ADME; settings: for Caco-2 A-B: A-B direction; for Caco-2 B-A: B-A direction
[9] = Solubility in PBS and H2O, dry powder, 24 hour timepoint

Row | protein binding mouse [1] | plasma stability mouse (Plasma stability, mouse) | microsomal stability human [2] | plasma stability human (Plasma stability, human) | protein binding human [4] | Papp A→B [5] | Papp B→A [5] | microsomal stability mouse [6] | solubility at 24 h (physchem; PBS, aqueous buffer) | Caco-2 A-B (Caco-2 monolayer) | Caco-2 B-A (Caco-2 monolayer) | solubility H2O [9] | solubility PBS [9] | SMILES | Papp [3] | solubility at 24 h (physchem; water) | hepatocytes mouse [7] | hepatocytes human [8] | BBB PAMPA [3]
1 | 32 % bound | 97 % remaining | 94 % remaining | 93 % remaining | 37 % bound | 29 ×10⁻⁶ cm/s | 35 ×10⁻⁶ cm/s | 89 % remaining | > 500 µM |  |  |  |  | CCCN1[C@H](CO)[C@H](c2ccccc2)C12CN(C(C)=O)C2 [30c, (2S,3S)-1-Propyl-2-hydroxymethyl-3-phenyl-6-acetyl-1,6-diazaspiro[3.3]heptane] |  |  |  |  | 
2 | 37 % bound | 105 % remaining | 73 % remaining | 97 % remaining | 37 % bound | 66 ×10⁻⁶ cm/s | 57 ×10⁻⁶ cm/s | 63 % remaining | 453 µM (≈ 141 µg/mL) |  |  |  |  | CCCN1[C@@H]2COc3ccccc3[C@@H]2[C@@H]1CNS(C)(=O)=O [32b, N-(((1R,2aS,8bR)-2-Propyl-2,2a,3,8b-tetrahydro-1H-chromeno[3,4-b]azet-1-yl)methyl) methanesulfonamide] |  |  |  |  | 
3 | 5 % bound | 78 % remaining | 96 % remaining | 82 % remaining | 1 % bound | 14 ×10⁻⁶ cm/s | 21 ×10⁻⁶ cm/s | 97 % remaining | 494 µM (≈ 129 µg/mL) |  |  |  |  | CN1CCCCN2[C@H](CO)[C@H](c3ccccc3)[C@@H]2C1 [29c, ((8R,9R,10S)-6-Methyl-9-phenyl-1,6-diazabicyclo[6.2.0]decan-10-yl) methanol] | 9 ×10⁻⁶ cm/s | > 500 µM |  |  | 
4 | −6.0 % bound | 106 % remaining | 99 % remaining | 86 % remaining | 28 % bound | 33 ×10⁻⁶ cm/s | 56 ×10⁻⁶ cm/s | 98 % remaining | > 500 µM |  |  |  |  | CCCN1[C@H](CO)[C@H](c2ccccc2)C12CN(C)C2 [30b, (2S,3S)-1-Propyl-2-hydroxymethyl-3-phenyl-6-methyl-1,6-diazaspiro[3.3]heptane] |  |  |  |  | 
5 | 65 % bound | 110 % remaining | 88 % remaining | 109 % remaining | 65 % bound |  |  | 62 % remaining |  | 67 10^−6 cm.s^−1 | 49 10^−6 cm.s^−1 | >500 µM | 402 µM (≈ 92.6 µg/mL) | CCCN1[C@H](CO)[C@H](c2ccccc2)[C@@H]1C#N [26a, (2R,3R,4S)-4-(Carbonitrile)-3-phenyl-1-propylazetidine-2-hydroxymethyl] |  |  | 59 % remaining | 54 % remaining | 
6 | 91 % bound | 102 % remaining | 0 % remaining | 94 % remaining | 95 % bound | 59 ×10⁻⁶ cm/s | 52 ×10⁻⁶ cm/s | 0 % remaining | 43 µM (≈ 14.5 µg/mL) |  |  |  |  | CCCN1[C@@H]2COc3ccccc3[C@@H]2[C@@H]1CNC(=O)c1ccccc1 [32a, N-(((1R,2aS,8bR)-2-Propyl-2,2a,3,8b-tetrahydro-1H-chromeno[3,4-b]azet-1-yl)methyl) benzamide] |  |  |  |  | 
7 |  |  |  |  |  | 12 ×10⁻⁶ cm/s | 17 ×10⁻⁶ cm/s |  | > 500 µM |  |  |  |  | O=C1CNC[C@H]2[C@@H](c3ccccc3)[C@@H](COC(c3ccccc3)(c3ccccc3)c3ccccc3)N12 [28b, (6R,7R,8S)-7-Phenyl-8-((trityloxy)methyl)-1,4-diazabicyclo[4.2.0]octan-2-one] |  |  |  |  | 
8 | 50 % bound | 107 % remaining | 69 % remaining | 101 % remaining | 45 % bound |  |  | 34 % remaining |  | 56 10^−6 cm.s^−1 | 64 10^−6 cm.s^−1 | >500 µM | 478 µM (≈ 148 µg/mL) | CCCN1C(CO)C2c3ccccc3N(S(C)(=O)=O)CC21 (racemic) [31c, ((±)-4-(Methylsulfonyl)-2-propyl-1,2,2a,3,4,8b-hexahydroazeto[2,3-c]quinolin-1-yl) methanol] |  |  |  |  | 35 10^−6 cm s^−1
9 | −2.3 % bound | 106 % remaining | 104 % remaining | 78 % remaining | −4.6 % bound | 17 ×10⁻⁶ cm/s | 20 ×10⁻⁶ cm/s | 100 % remaining | > 500 µM |  |  |  |  | CS(=O)(=O)N1CC(=O)N2[C@H](CO)[C@H](c3ccccc3)[C@@H]2C1 [28c, (6R,7R,8S)-8-(Hydroxymethyl)-4-(methylsulfonyl)-7-phenyl-1,4-diazabicyclo [4.2.0] octan-2-one] |  |  |  |  | 

Row | SMILES | protein binding mouse [1] | plasma stability mouse (Plasma stability, mouse) | microsomal stability human [2] | plasma stability human (Plasma stability, human) | protein binding human [4] | Papp A→B [5] | Papp B→A [5] | microsomal stability mouse [6] | solubility at 24 h (physchem; PBS, aqueous buffer) | Caco-2 A-B (Caco-2 monolayer) | Caco-2 B-A (Caco-2 monolayer) | solubility H2O [9] | solubility PBS [9] | Papp [3] | solubility at 24 h (physchem; water) | hepatocytes mouse [7] | hepatocytes human [8] | BBB PAMPA [3]
10 | CCCN1C2CNCC1C2c1ccccc1 (stereo not drawn) [27a, 7-Phenyl-6-propyl-3,6-diazabicyclo[3.1.1]heptane] | 35 % bound | 103 % remaining | 94 % remaining | 102 % remaining | 49 % bound | 30 ×10⁻⁶ cm/s | 22 ×10⁻⁶ cm/s | 79 % remaining | > 500 µM |  |  |  |  | 4 ×10⁻⁶ cm/s | > 500 µM |  |  | 
11 | CCCN1C2CN(Cc3ccc(F)cc3)CC1C2c1ccccc1 (stereo not drawn) [27d, 3-(4-Fluorobenzyl)-7-phenyl-6-propyl-3,6-diazabicyclo[3.1.1]heptane] | 98 % bound | 90 % remaining | 55 % remaining | 71 % remaining | 98 % bound | 14 ×10⁻⁶ cm/s | 7 ×10⁻⁶ cm/s | 42 % remaining | 335 µM (≈ 109 µg/mL) |  |  |  |  | 111 ×10⁻⁶ cm/s | 346 µM (≈ 112 µg/mL) |  |  | 
12 | CCCN1C2CN(S(C)(=O)=O)CC1C2c1ccccc1 (stereo not drawn) [27c, 3-(Methylsulfonyl)-7-phenyl-6-propyl-3,6-diazabicyclo[3.1.1]heptane] | 39 % bound | 102 % remaining | 86 % remaining | 113 % remaining | 31 % bound | 66 ×10⁻⁶ cm/s | 54 ×10⁻⁶ cm/s | 72 % remaining | 470 µM (≈ 138 µg/mL) |  |  |  |  | 31 ×10⁻⁶ cm/s | 490 µM (≈ 144 µg/mL) | 67 % remaining | 72 % remaining | 
13 | CCCN1C(CO)C2c3ccccc3NCC21 (racemic) [31a, ((±)-2-Propyl-1,2,2a,3,4,8b-hexahydroazeto[2,3-c]quinolin-1-yl) methanol] | 22 % bound | 108 % remaining | 85 % remaining | 97 % remaining | 10 % bound |  |  | 94 % remaining |  | 43 10^−6 cm.s^−1 | 29 10^−6 cm.s^−1 | 495 µM (≈ 115 µg/mL) | >500 µM |  |  |  |  | 31 10^−6 cm s^−1
14 | OC[C@@H]1[C@H](c2ccccc2)[C@@H]2CNCCCCN12 [29b, ((8R,9R,10S)-9-Phenyl-1,6-diazabicyclo[6.2.0]decan-10-yl)methanol] | 9 % bound | 94 % remaining | 86 % remaining | 99 % remaining | 8 % bound | 2 ×10⁻⁶ cm/s | 8 ×10⁻⁶ cm/s | 89 % remaining | > 500 µM |  |  |  |  | 6 ×10⁻⁶ cm/s | 491 µM (≈ 121 µg/mL) |  |  | 
15 | CN1CC(=O)N2[C@H](CO)[C@H](c3ccccc3)[C@@H]2C1 [28a, (6R,7R,8S)-8-(Hydroxymethyl)-4-methyl-7-phenyl-1,4-diazabicyclo[4.2.0]octan-2-one] |  | 116 % remaining | 112 % remaining | 99 % remaining |  | 43 ×10⁻⁶ cm/s | 31 ×10⁻⁶ cm/s | 104 % remaining | > 500 µM |  |  |  |  |  |  |  |  | 
16 | CCCN1[C@H](CO)[C@H](c2ccccc2)C12CNC2 [30a, (2S,3S)-1-Propyl-2-hydroxymethyl-3-phenyl-1,6-diazaspiro[3.3]heptane] |  | 108 % remaining | 95 % remaining | 106 % remaining |  | 3 ×10⁻⁶ cm/s | 12 ×10⁻⁶ cm/s | 93 % remaining | > 500 µM |  |  |  |  |  |  |  |  | 
